Source: PubChem BioAssay (NCI)
Values joined by “and” are separate entries in the source; they are usually repeats but may differ in a detail not shown here. Equal values may be shown once.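 Results reflect a 48-hour exposure of cells in 96-well plates to compound at five concentrations. At the GI50, growth is halved. TGI denotes the concentration required for complete inhibition of growth.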

Key:
Assay in all cases: growth of human tumour cells (NCI), 48 h
U251 CNS = system: U251 CNS
SF-268 CNS = system: SF-268 CNS
SK-MEL-2 melanoma = system: SK-MEL-2 melanoma
SF-539 CNS = system: SF-539 CNS
T-47D breast = system: T-47D breast
SN12C renal = system: SN12C renal
MDA-MB-435 = system: MDA-MB-435

Row | SMILES | TGI (U251 CNS) | TGI (SF-268 CNS) | TGI (SK-MEL-2 melanoma) | TGI (SF-539 CNS) | TGI (T-47D breast) | TGI (SN12C renal) | TGI (MDA-MB-435) | GI50 (U251 CNS) | GI50 (SF-268 CNS) | GI50 (SK-MEL-2 melanoma) | GI50 (SF-539 CNS) | GI50 (T-47D breast) | GI50 (SN12C renal) | GI50 (MDA-MB-435)
1 | COc1cc2c(c(OC)c1OC)-c1c(cc3c(c1OC)OCO3)C1OC2C(C)C1C (stereo unspecified) (tested in a mixture with another compound) | > 100 µM | > 100 µM | > 100 µM | > 100 µM | 80.2 µM | > 100 µM | > 100 µM | – | – | – | – | – | – | –
2 | C=C1CC[C@@H]2[C@](C)(COC(C)=O)[C@H](OC(C)=O)CC[C@@]2(C)[C@@H]1CC(Nc1ccc(S(=O)(=O)Nc2ncccn2)cc1)C1=CCOC1=O (stereo partly specified) | 3.28 µM | 4.16 µM | 7.2 µM | 2.94 µM | 5.46 µM | 1.96 µM | 3.77 µM | 1.74 µM | 1.93 µM | 2.36 µM | 1.5 µM | 2 µM | 0.43 µM | 1.58 µM
3 | CCc1oc2ccccc2c1C(=O)c1cc(I)c(O)c(I)c1 | 18.3 µM | 15.2 µM | 28 µM | 10.4 µM | 20.8 µM | 17.8 µM | 1.4 µM | 4.4 µM | 2.89 µM | 7.42 µM | 2.28 µM | 4.56 µM | 4.18 µM | 0.327 µM
4 | Cc1ccc(C(=O)Nc2ccc(CN3CCN(C)CC3)c(C(F)(F)F)c2)cc1C#Cc1cnc(N)c2ccccc12 | 1.12 µM | 1.26 µM | 1.55 µM | 1.41 µM | 2.3 µM | 0.917 µM | 0.835 µM | 0.348 µM | 0.403 µM | 0.367 µM | 0.729 µM | 0.861 µM | 0.191 µM | 0.214 µM
5 | O=C(/C(=C/c1cccc([N+](=O)[O-])c1)c1ccccc1)c1ccccc1 | 8.16 µM | 15.5 µM | – | 11.9 µM | 15.5 µM | 79.8 µM | 4.43 µM | 2.72 µM | 3.9 µM | – | 3.49 µM | 3.42 µM | 3.54 µM | 1.96 µM
6 | C=C1C(=O)O[C@H]2[C@H]1CC/C(COC(=O)c1cc3ccccc3s1)=C\CC[C@@]1(C)O[C@@H]21 | 3.03 µM | 3.24 µM | 3.52 µM | 3.34 µM | – | 4.61 µM | 2.89 µM | 1.52 µM | 1.54 µM | 1.75 µM | 1.6 µM | – | 2.06 µM | 1.33 µM
7 | C/C=C(\C)CC/C=C/CO[Si](C)(C)C(C)(C)C | – | > 100 µM | > 100 µM | > 100 µM | > 100 µM | > 100 µM | > 100 µM | – | – | – | – | – | – | –
8 | O=C1/C(=C/c2ccc(O)cc2)CSc2ccc(Cl)cc21 | 15.8 µM | 41.3 µM | 51.8 µM | 31.4 µM | 22.7 µM | 46.9 µM | 25.3 µM | 4.21 µM | 15.4 µM | 19.1 µM | 16.8 µM | 8.86 µM | 14 µM | 4.54 µM
9 | Cn1c2ccccc2c2c3[nH]c(=O)[nH]c(=O)c3c3c4ccccc4n(C)c3c21 | 13 µM | 15.6 µM | 19.7 µM | 6.61 µM | 27.1 µM | > 100 µM | > 100 µM | 3.02 µM | 3.12 µM | 4.5 µM | 1.78 µM | 2.05 µM | 4.21 µM | 3.05 µM
10 | Cc1nc(-c2ccccc2)c(-c2ccccc2)s1 | 29.5 µM | 78.6 µM | 32.8 µM | 71.4 µM | > 100 µM | > 100 µM | 69.1 µM | – | – | – | – | – | – | –
11 | C=C(C)C1CCC2(C(=O)O)CCC3(C)C(CCC4C5(C)CCC(OC(=O)NCc6ccccc6)C(C)(C)C5CCC43C)C12 (stereo unspecified) | > 100 µM | > 100 µM | > 100 µM | > 100 µM | > 100 µM | > 100 µM | > 100 µM | 3.07 µM | 4.84 µM | 5.46 µM | 41.9 µM | 3.19 µM | 7.11 µM | 5.33 µM
12 | Cc1ccc(NC(=O)NCCCOc2ccc(N3C(N)=NC(N)=NC3(C)C)cc2Cl)cc1S(=O)(=O)F | > 100 µM | > 100 µM | – | 81.2 µM | > 100 µM | – | > 100 µM | 4.04 µM | 0.916 µM | – | 8.84 µM | 19.8 µM | – | 4.46 µM
13 | C/C(=N\Nc1ccc(Cl)cn1)c1ccccn1 | > 100 µM | > 73.2 µM | > 100 µM | 3.49 µM | > 38.8 µM | > 100 µM | > 100 µM | 0.218 µM | 0.213 µM | 0.72 µM | 0.229 µM | 0.0372 µM | 0.134 µM | 0.382 µM
14 | CC[C@H](C)[C@H]1O[C@]2(C=C[C@@H]1C)C[C@@H]1C[C@@H](C/C=C(\C)[C@@H](O[C@H]3C[C@H](OC)[C@@H](O[C@H]4C[C@H](OC)[C@@H](NC)[C@H](C)O4)[C@H](C)O3)[C@@H](C)/C=C/C=C3\CO[C@@H]4[C@H](O)C(C)=C[C@@H](C(=O)O1)[C@]34O)O2 | 4.07 µM | 16 µM | 7.07 µM | 3.37 µM | 16.8 µM | 11.3 µM | 3.62 µM | 1.91 µM | 3.9 µM | 2.54 µM | 1.81 µM | 4.4 µM | 3.04 µM | 1.79 µM
15 | COc1ccc(-c2nnc(COc3ccc(NC(=O)Nc4ccc(Cl)c(C(F)(F)F)c4)cc3F)o2)cc1 | 5.7 µM | 36.1 µM | 9.87 µM | 19.6 µM | 14.5 µM | 56 µM | 36.9 µM | 1.93 µM | 6.01 µM | 3.61 µM | 5.01 µM | 3.02 µM | 3.8 µM | 3.8 µM
16 | CSc1nc2cc(S(=O)(=O)N3CCCCC3)ccc2s1 | > 100 µM | > 100 µM | > 100 µM | > 100 µM | > 100 µM | > 100 µM | > 100 µM | – | – | – | – | – | – | –
17 | Cn1cnc([N+](=O)[O-])c1[Se]c1nc(N)nc2c1ncn2C1OC(CO)C(O)C1O (stereo unspecified) | > 100 µM | > 100 µM | > 100 µM | > 100 µM | > 100 µM | > 100 µM | > 100 µM | – | – | – | – | – | – | –
18 | NCCCn1c2c(c3ccc([N+](=O)[O-])cc3c1=O)C(=O)c1cc(Br)ccc1-2 | 0.111 µM and 0.014 µM | 0.142 µM | – | 0.0699 µM and 0.0472 µM | 1.49 µM | 0.0566 µM | 1.36 µM | 0.0202 µM | 0.00358 µM | – | 0.0132 µM and 0.0109 µM | 0.346 µM and 0.169 µM | 0.0154 µM | 0.267 µM and 0.162 µM
